# Measured values published in patent US20060217447A1, “Wood preservative formulations comprising dichlorophen” (priority 2005, published 2006).
# Values joined by “and” are separate entries in the source; they are usually repeats but may differ in a detail not shown here. Equal entries are not always repeated.
# Tested on: decay organisms
# Test: Soil contact veneer exposure test: dip-treated Scots pine sapwood veneers in damp compost, pulled by hand weekly until failure
# Conditions: for Half life for fungicide at 2% ai / Half life for fungicide at 2% active ingredient (ai): 2% single biocide; for Half life for fungicide at 2% active ingredient (ai): Example 3; for average time for failure to occur, Quat Only: 0.36% active quaternary ammonium compound in deionised water
# Description: The present invention also provides a simple exposure test for evaluating the wood preserving abilities of candidate ingredients or compositions. This exposure test is based on the premise that small dimension timber test specimens tend to fail more quickly than larger ones in soil contact situations.
# It is preferable that the thickness of the veneers be greater than 0.1 mm, as veneers of lesser thickness can often be pulled apart by hand without undergoing exposure to decay organisms. Veneers which are thicker than 0.4 may take an excessive amount of time to fail the exposure test. In one embodiment, the thickness of the veneers is about 0.2 mm and the wood is the sapwood of the Scots pine (Pinus sylvestris). Other woods and thicknesses can be used. […] An example of convenient width and length dimensions are 15×50 mm. However, width and length are not critical provided they are kept consistent within a test, although very large or small length or width dimensions may be difficult to handle.
# Accordingly, the test of the present invention comprises testing the integrity of a veneer after exposure to a decay-inducing environment. In one embodiment, this environment is damp compost in which decay organisms are present and water is present at just above the water holding capacity of the compost. If desired, other media can be used, and the test can be conducted at water contents which are below, at, or above the water-holding capacity of the media.
# In general, the integrity of the veneer is inversely related to the length of exposure to the decay promoting environment. The integrity of the veneer can be tested by applying a force to the veneer and noting whether or not the veneer breaks. Thus, if wood preservative agents are applied to the veneers, these veneers would be expected to withstand longer exposure to the environment without breaking compared to control veneers without breaking.
# The force applied to the veneers is preferably a force which pulls the two ends in opposite directions. The force can be applied by the use of an instrument or manually. If there is significant decay the veneer will break, generally near the junction between the portion submerged in the decay accelerating medium and the portion exposed to air. If the force is applied manually, it is preferable that the same individual conduct the test at the various exposure time points.
# The veneers were cut such that both late wood and early wood were present in each veneer. The following biocides were tested: dichlorophen, fenarimol, imazalil sulfate, and PHMB.
# Test solutions were prepared and sets of veneers were dip treated such that there were 6 replicate veneers for each treatment under investigation. Additionally six veneers were dip treated in deionised water to act as water controls. […] Plastic containers (approximately 350×220 mm by at least 60 mm high) were part filled with John Innes Number 2 potting compost at a little above its water holding capacity. The veneers for a particular test were placed in six rows within a container such that approximately half the veneer was below the compost and half above. The veneers were placed in the compost such than those given a particular treatment were distributed throughout the container and were not grouped together. The containers, compost and veneers were weighed then incubated at about 30° C. and near 100% relative humidity in an incubator. Each week during the test the assembly was reweighed and deionised water added to bring it back to its original mass. After 3 weeks each veneer was examined in turn. It was held between the fingers at each end and pulled to see if it could be broken. If it could be pulled apart a failure was recorded. If the veneer was sound, this was recorded and the veneer was returned to its original position. After a further one week incubation all sound veneers were assessed again as described above, with the same person conducting the assessments.
# [1] = Example 5, solutions in IMS (alcohol)
# [2] = Example 6, solutions in IMS (alcohol), single biocide at 0.8%
# [3] = Example 6, solutions in IMS (alcohol), single biocide at 1.6%
# [4] = Example 1, single biocide at 0.8% in treatment solution, 6 replicate veneers
# [5] = Example 8, solutions in IMS (alcohol), single biocide at 0.8%
# [6] = Example 8, solutions in IMS (alcohol), single biocide at 1.6%
# [7] = Example 7, solutions in acetone, single biocide at 0.8%
# [8] = Example 7, solutions in acetone, single biocide at 1.6%
# [9] = Example 4, solutions in acetone
compound,measurement,setting,value
"1H-imidazole, 1-(2-(2,4-dichlorphenyl)-2-(2-propenyloxy)ethyl)-,sulfate [Imazalil Sulphate]",average time for failure to occur,"Example 1, single biocide at 0.4% in treatment solution",5.2 weeks
same,Half life for fungicide at 2% ai,[1],7.83 weeks
same,Calculated half life,[2],7.00 weeks
same,Calculated half life,[3],8.00 weeks
"OC(c1ccc(Cl)cc1)(c1cncnc1)c1ccccc1Cl (racemic) [Fenarimol, (±)-2,4′-dichloro-α-(pyrimidin-5-yl) benzhydryl alcohol]",average time for failure to occur,[4],~7.2 weeks and 7.2 weeks
same,Half life for fungicide at 2% active ingredient (ai),solutions in IMS (alcohol),7.33 weeks
OB(O)O [Boric acid],Calculated half life,[5],4.17 weeks
same,Calculated half life,[6],4.50 weeks
"N#Cc1c(Cl)c(Cl)c(Cl)c(C#N)c1Cl [Chlorothalonil, 2,4,5,6-tetrachloro-1,3-benzenedicarbonitrile]",Calculated half life,[7],9.33 weeks
same,Calculated half life,[8],12.33 weeks
"CC(C1CC1)C(O)(Cn1cncn1)c1ccc(Cl)cc1 (stereo not drawn) [Cyproconazole, α-(4-chlorophenyl)-α-(1-cyclopropylethyl)-=1H-1,2,4-triazol-1-ethanol]",Half life for fungicide at 2% active ingredient (ai),solutions in IMS (alcohol),6.67 weeks
same,Calculated half life,[7],4.33 weeks
same,Calculated half life,[8],4.50 weeks
"CCCCCCCCCC[N+](C)(C)CCCCCCCCCC.[Cl-] [DDAC, didecyl dimethyl ammonium chloride]","average time for failure to occur, Quat Only",Example 2,4.2 weeks
same,Half life for fungicide at 2% ai,[1],5.50 weeks
same,Calculated half life,[2],5.17 weeks
same,Calculated half life,[3],6.67 weeks
"Oc1ccc(Cl)cc1Cc1cc(Cl)ccc1O [Dichlorophen, 2,2′-methylenebis [4-chlorophenol]]",average time for failure to occur,"Example 1, 0.6% dichlorophen alone",9.5 weeks
same,average time for failure to occur,"Example 2, 0.60% dichlorophen, no quat",5.7 weeks
same,Half life for fungicide at 2% active ingredient (ai),solutions in IMS (alcohol),15.67 weeks
same,Half life for fungicide at 2% ai,[9],18.17 weeks
same,Half life for fungicide at 2% ai,[1],17.00 weeks
same,Calculated half life,[2],11.33 weeks
same,Calculated half life,[3],14.50 weeks
same,Calculated half life,[7],8.67 weeks
same,Calculated half life,[8],10.83 weeks
same,Calculated half life,[5],7.83 weeks
same,Calculated half life,[6],11.67 weeks
"CC(Cc1ccc(C(C)(C)C)cc1)CN1C[C@@H](C)O[C@@H](C)C1 (stereo partly drawn) [Fenpropimorph, cis-4-[3-[4-(1,1-dimethylethyl)phenyl]-2-methylpropyl]-=2,6-dimethylmorpholine]",Half life for fungicide at 2% active ingredient (ai),solutions in IMS (alcohol),6.17 weeks
same,Calculated half life,[7],3.67 weeks
same,Calculated half life,[8],4.33 weeks
"CCCC1COC(Cn2cncn2)(c2ccc(Cl)cc2Cl)O1 (stereo not drawn) [Propiconazole, 1-[[2-(2,4-dichlorophenyl)-4-propyl-1,3-dioxolan-2-yl]=methyl]-1H-1,2,4-triazole]",Half life for fungicide at 2% ai,[9],6.33 weeks
same,Calculated half life,[7],5.67 weeks
same,Calculated half life,[8],6.00 weeks
"COC(=O)N(OC)c1ccccc1COc1ccn(-c2ccc(Cl)cc2)n1 [Pyraclostrobin, methyl N-{2-[1-(4-chlorophenyl)-1H-pyrazol-3-yloxymethyl]phenyl}(N-methoxy)carbamate]",Half life for fungicide at 2% ai,[1],5.67 weeks
"CCCCCCCCn1sc(Cl)c(Cl)c1=O [RH 287, 4,5-dichloro-2-n-octyl-3(2H)-isothiazolone]",Calculated half life,[7],10.00 weeks
same,Calculated half life,[8],16.83 weeks
"O=C(Nc1ccccc1)c1ccccc1O [Salicylanilide, 2-hydroxy-N-phenylbenzamide]",Half life for fungicide at 2% active ingredient (ai),solutions in IMS (alcohol),14.00 weeks
same,Calculated half life,[5],4.83 weeks
same,Calculated half life,[6],5.83 weeks
"CCCCCCCCCCCCN(CCCN)CCCN [Triameen, N,N-bis(3-aminopropyl) dodecylamine]",Half life for fungicide at 2% ai,[1],5.50 weeks
"CCCCCCCCCCCCCN1CC(C)OC(C)C1 (stereo not drawn) [Tridemorph, 4-alkyl-2,6-dimethylmorpholine]",Half life for fungicide at 2% active ingredient (ai),solutions in IMS (alcohol),5.83 weeks
"N,N-didecyl-N-methyl-poly(oxyethyl) ammonium propionate [Bardap 26]","average time for failure to occur, Quat Only",Example 2,5.0 weeks
same,Calculated half life,[2],5.17 weeks
same,Calculated half life,[3],6.00 weeks
Poly(hexamethylenebiguanide) hydrochloride [PHMB],average time for failure to occur,[4],4.8 weeks
same,Calculated half life,[5],5.00 weeks
same,Calculated half life,[6],5.50 weeks
alkyl dimethyl benzyl ammonium chloride [BAC],Half life for fungicide at 2% ai,[1],5.00 weeks
same,Calculated half life,[5],5.00 weeks
same,Calculated half life,[6],5.00 weeks
